Assay results as given in PubChem BioAssay (NCI).
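Compound exposure: 48 hours, 5 concentrations, 96-well plates. GI50 = concentration required for 50% inhibition of growth. The concentration for full growth arrest is given as TGI.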

Legend:
Test in all cases: NCI tumour cell line growth inhibition, 48 h
LOX IMVI melanoma = system: LOX IMVI melanoma
NCI-H23 lung = system: NCI-H23 lung
SK-OV-3 ovarian = system: SK-OV-3 ovarian
A498 renal = system: A498 renal
UACC-257 melanoma = system: UACC-257 melanoma
A549 NSCLC = system: A549 NSCLC
KM12 colon = system: KM12 colon
HCT-15 colon = system: HCT-15 colon
MDA-MB-231 breast = system: MDA-MB-231 breast
HS 578T breast = system: HS 578T breast
T-47D breast = system: T-47D breast
OVCAR-4 ovarian = system: OVCAR-4 ovarian
OVCAR-5 ovarian = system: OVCAR-5 ovarian
CAKI-1 renal = system: CAKI-1 renal
SF-295 CNS = system: SF-295 CNS
MALME-3M melanoma = system: MALME-3M melanoma
PC-3 prostate = system: PC-3 prostate
HT29 colon = system: HT29 colon
HOP-62 NSCLC = system: HOP-62 NSCLC
ACHN renal = system: ACHN renal
MCF7 breast = system: MCF7 breast
MOLT-4 leukemia = system: MOLT-4 leukemia
U251 CNS = system: U251 CNS
NCI-H226 lung = system: NCI-H226 lung
OVCAR-3 ovarian = system: OVCAR-3 ovarian
COLO 205 colon = system: COLO 205 colon
NCI-H522 lung = system: NCI-H522 lung
SF-539 CNS = system: SF-539 CNS
TK-10 renal = system: TK-10 renal
K-562 leukemia = system: K-562 leukemia
NCI/ADR-RES ovarian = system: NCI/ADR-RES ovarian
M14 melanoma = system: M14 melanoma
HCC-2998 colon = system: HCC-2998 colon
SW-620 colon = system: SW-620 colon
DU-145 prostate = system: DU-145 prostate
BT-549 breast = system: BT-549 breast
HOP-92 NSCLC = system: HOP-92 NSCLC
SK-MEL-28 melanoma = system: SK-MEL-28 melanoma
SN12C renal = system: SN12C renal
786-0 renal = system: 786-0 renal
SK-MEL-2 melanoma = system: SK-MEL-2 melanoma
SK-MEL-5 melanoma = system: SK-MEL-5 melanoma
CCRF-CEM leukemia = system: CCRF-CEM leukemia
RXF 393 renal = system: RXF 393 renal
OVCAR-8 ovarian = system: OVCAR-8 ovarian
UACC-62 melanoma = system: UACC-62 melanoma
HCT-116 colon = system: HCT-116 colon
NCI-H460 lung = system: NCI-H460 lung
MDA-MB-435 = system: MDA-MB-435
SNB-19 CNS = system: SNB-19 CNS
HL-60(TB) leukemia = system: HL-60(TB) leukemia
SF-268 CNS = system: SF-268 CNS
SNB-75 CNS = system: SNB-75 CNS
IGROV1 ovarian = system: IGROV1 ovarian
RPMI-8226 leukemia = system: RPMI-8226 leukemia
SR leukemia = system: SR leukemia
UO-31 renal = system: UO-31 renal

## CCOc1cc(Br)c(C(C)NC(=O)c2cccc(OC)c2)cc1OCC (centres undefined)
LOX IMVI melanoma
  GI50: 22.8 µM
  TGI: > 100 µM
NCI-H23 lung
  GI50: 29.1 µM
  TGI: > 100 µM
SK-OV-3 ovarian
  GI50: 23.1 µM
  TGI: > 100 µM
A498 renal
  GI50: 0.866 µM
  TGI: 25.5 µM
UACC-257 melanoma
  GI50: 22.5 µM
  TGI: > 100 µM
A549 NSCLC
  GI50: 10.8 µM
  TGI: > 100 µM
KM12 colon
  GI50: 7.32 µM
  TGI: > 100 µM
HCT-15 colon
  GI50: 5.82 µM
  TGI: > 100 µM
MDA-MB-231 breast
  GI50: 8.59 µM
  TGI: > 100 µM
HS 578T breast
  GI50: 15.5 µM
  TGI: > 96.6 µM
T-47D breast
  GI50: 9.53 µM
  TGI: > 100 µM
OVCAR-4 ovarian
  GI50: 13.2 µM
  TGI: > 93.5 µM
OVCAR-5 ovarian
  GI50: 25.4 µM
  TGI: > 100 µM
CAKI-1 renal
  GI50: 13.3 µM
  TGI: > 100 µM
SF-295 CNS
  GI50: 8.3 µM
  TGI: > 89.5 µM
MALME-3M melanoma
  GI50: 9.9 µM
  TGI: > 89.3 µM
PC-3 prostate
  GI50: 12.6 µM
  TGI: > 100 µM
HT29 colon
  GI50: 5.01 µM
  TGI: > 100 µM
HOP-62 NSCLC
  GI50: 10.6 µM
  TGI: > 100 µM
ACHN renal
  GI50: 21.1 µM
  TGI: > 100 µM
MCF7 breast
  GI50: 5.38 µM
  TGI: > 100 µM
MOLT-4 leukemia
  GI50: 5.64 µM
  TGI: > 100 µM
U251 CNS
  GI50: 11.4 µM
  TGI: > 100 µM
NCI-H226 lung
  GI50: 21.4 µM
  TGI: > 100 µM
OVCAR-3 ovarian
  GI50: 5.42 µM
  TGI: 38.7 µM
COLO 205 colon
  GI50: 8.28 µM
  TGI: 37.9 µM
NCI-H522 lung
  GI50: 6.83 µM
  TGI: 54.4 µM
SF-539 CNS
  GI50: 7.2 µM
  TGI: 42.8 µM
TK-10 renal
  GI50: 28.2 µM
  TGI: > 100 µM
K-562 leukemia
  GI50: 3.6 µM
  TGI: > 100 µM
NCI/ADR-RES ovarian
  GI50: 5.71 µM
  TGI: > 100 µM
M14 melanoma
  GI50: 4.38 µM
  TGI: > 100 µM
HCC-2998 colon
  GI50: 33.7 µM
  TGI: > 100 µM
SW-620 colon
  GI50: 4.6 µM
  TGI: > 100 µM
DU-145 prostate
  GI50: 26.4 µM
  TGI: > 100 µM
BT-549 breast
  GI50: 13.2 µM
  TGI: > 84.1 µM
HOP-92 NSCLC
  GI50: 8.97 µM
  TGI: > 83.5 µM
SK-MEL-28 melanoma
  GI50: 12 µM
  TGI: > 100 µM
SN12C renal
  GI50: 25.2 µM
  TGI: > 100 µM
786-0 renal
  GI50: 20.4 µM
  TGI: > 100 µM
SK-MEL-2 melanoma
  GI50: 5.54 µM
  TGI: > 76.7 µM
SK-MEL-5 melanoma
  GI50: 8.06 µM
  TGI: 34.9 µM
CCRF-CEM leukemia
  GI50: 13.6 µM
  TGI: > 100 µM
RXF 393 renal
  GI50: 12.6 µM
  TGI: > 100 µM
OVCAR-8 ovarian
  GI50: 25.6 µM
  TGI: > 100 µM
UACC-62 melanoma
  GI50: 6.61 µM
  TGI: > 100 µM
HCT-116 colon
  GI50: 4.39 µM
  TGI: > 100 µM
NCI-H460 lung
  GI50: 6.02 µM
  TGI: > 81.5 µM
MDA-MB-435
  GI50: 2.16 µM
  TGI: 6.1 µM
SNB-19 CNS
  GI50: 11.8 µM
  TGI: > 100 µM
HL-60(TB) leukemia
  GI50: 3.8 µM
  TGI: > 61.3 µM
SF-268 CNS
  GI50: 22.9 µM
  TGI: > 100 µM
SNB-75 CNS
  GI50: 6.04 µM
  TGI: 51.7 µM
IGROV1 ovarian
  GI50: 22.3 µM
  TGI: > 100 µM
RPMI-8226 leukemia
  GI50: 13.9 µM
  TGI: > 92.1 µM
SR leukemia
  GI50: 3.26 µM
  TGI: > 100 µM
UO-31 renal
  GI50: 12.1 µM
  TGI: > 100 µM
